Test results as given in patent US5559129A, “Indole derivatives” (priority 1995, dated 1996).

Key:
[1] = tested on: plasma protein extravasation response within the dura mater; assay: Inhibition of plasma protein extravasation within the dura mater following unilateral electrical trigeminal ganglion stimulation; type: in vivo, guinea pig; details: for minimal effective dose: Cavia porcellus, iv, i.v. in guinea pigs, read-out: M.E.D. (minimally effective dose) for inhibition of plasma protein extravasation
Method: The active compounds of the present invention are also evaluated via the inhibition of plasma protein extravasation response within the dura mater of guinea pigs following unilateral electrical trigeminal ganglion stimulation. The extent to which they mimic sumatriptan, in terms of both potency and efficacy, is determined in this assay. The procedure is performed on male Hartley guinea pigs (200-250 g, Charles River Laboratories, Wilmington, Mass., U.S.A.) as described in Markowitz et al., J. Neurosci., 7 (12), 4129-4136 (1987) and also in Lee, et al., Brain Reseach, 626, 303-305 (1993). The procedure briefly consists of placing pentobarbitone-anesthetized animals in a stereotaxic frame. ^125 I-BSA (bovine serum albumin) (50 μCi/kg^-1) is first injected into the femoral vein, followed 5 minutes later by drug or vehicle. Bipolar electrodes are then lowered into the trigeminal ganglia, and the right ganglion is stimulated for 5 minutes (1.2 mA, 5 Hz, 5 msec). The animal is then perfused with saline through the left cardiac ventricle and sacrificed, and the dura mater is dissected, weighed, and counted for radioactivity. Cpm/mg wet weight values are determined for the right vs left dura mater, and a ratio for the stimulated vs unstimulated sides is generated for each animal. Unpaired student's t-test is used to statistically compare these ratio values in respective groups treated with vehicle or drug.

[2] = tested on: carotid vascular resistance; details: anaesthetized dog; cited from earlier work
[3] = tested on: dog isolated saphenous vein strip; details: antagonist of the vein strip contraction; cited from earlier work
[4] = Solid-state and solubility properties of the α-form of the hydrobromide salt; type: physicochemical; details: crystalline α-form of the hydrobromide salt

## CNS(=O)(=O)Cc1ccc2[nH]cc(C[C@H]3CCCN3)c2c1 [Example 6A, (R)-5-(Methylaminosulfonylmethyl)-3-(pyrrolidin-2-ylmethyl)-1H-indole]
[1]
  minimal effective dose: 1e-07 µmol/kg

## CNS(=O)(=O)Cc1ccc2[nH]cc(CCN(C)C)c2c1 [Sumatriptan]
[2]
  increase in carotid vascular resistance: selective increase in carotid vascular resistance

## CSc1ccc2c(c1)C(N1CCN(C)CC1)Cc1ccccc1S2 (centres unmarked) [methiothepin]
[3]
  block of the contractile effect by a known serotonin antagonist: blocked

## CN1C[C@H](CNC(=O)OCc2ccccc2)C[C@@H]2c3cccc4c3c(cn4C)C[C@H]21 [metergoline, reference compound]
[1]; antagonist of the inhibition of plasma protein extravasation
  block of the effect of the drugs by a known serotonin antagonist: partially blocked

## CNS(=O)(=O)Cc1ccc2[nH]cc(C[C@H]3CCCN3C)c2c1 [Example 5A, (R)-5-(Methylaminosulfonylmethyl)-3-(N-methylpyrrolidin-2-ylmethyl)-1H-indole]
[1]
  minimal effective dose: 1e-06 µmol/kg

## Br.CN1CCC[C@@H]1Cc1c[nH]c2ccc(CCS(=O)(=O)c3ccccc3)cc12 [α-form, (R)-5-(2-phenylsulphonylethyl)-3-(N-methylpyrrolidin-2-ylmethyl)-1H-indole hydrobromide]
[4]
  hygroscopicity: non-hygroscopic
  solid-state stability: possesses solid-state stability
  solubility and dissolution behavior: acceptable solubility and dissolution behavior
